Results from publication PMC5761851, “Application of a phenotypic drug discovery strategy to identify biological and chemical starting points for inhibition of TSLP production in lung epithelial cells” (PLoS ONE, 2018).
Blank lines part the entries; values can stand above or below the compound they belong to.

Experiments:
Assay in all cases: kinase selectivity panel
Format in all cases: biochemical
Abl = target: T1, Abl (Homo sapiens, UniProt P00519); details: read-out: percentage of control activity (POC), Abl
T1 construct: purchased Eurofins Pharma Discovery Services (KinaseProfiler; Cerep BioPrint panel)
Summary of the method: (§1)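 IC50 values derive from 9 duplicate concentrations, run only for activities picked after an initial 10 μM duplicate screen across 125 representative kinases.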

BTK = target: T2, BTK (Homo sapiens, UniProt Q06187); details: read-out: percentage of control activity (POC), BTK
T2 construct: purchased Eurofins Pharma Discovery Services (KinaseProfiler; Cerep BioPrint panel)
Summary of the method: as §1

EphA2 = target: T3, EphA2 (Homo sapiens, UniProt P29317); details: read-out: percentage of control activity (POC), EphA2
T3 construct: purchased Eurofins Pharma Discovery Services (KinaseProfiler; Cerep BioPrint panel)
Summary of the method: as §1

Flt4 = target: T4, Flt4 (Homo sapiens, UniProt P35916); details: for remaining activity at 10 µM: read-out: percentage of control activity (POC), Flt4
T4 construct: Eurofins Pharma Discovery Services (contract assay service)
Summary of the method: as §1

IRAK4 = target: T5, IRAK4 (Homo sapiens, UniProt Q9NWZ3); details: read-out: percentage of control activity (POC), IRAK4
T5 construct: purchased Eurofins Pharma Discovery Services (KinaseProfiler; Cerep BioPrint panel)
T5 sequence (Q9NWZ3 1-460): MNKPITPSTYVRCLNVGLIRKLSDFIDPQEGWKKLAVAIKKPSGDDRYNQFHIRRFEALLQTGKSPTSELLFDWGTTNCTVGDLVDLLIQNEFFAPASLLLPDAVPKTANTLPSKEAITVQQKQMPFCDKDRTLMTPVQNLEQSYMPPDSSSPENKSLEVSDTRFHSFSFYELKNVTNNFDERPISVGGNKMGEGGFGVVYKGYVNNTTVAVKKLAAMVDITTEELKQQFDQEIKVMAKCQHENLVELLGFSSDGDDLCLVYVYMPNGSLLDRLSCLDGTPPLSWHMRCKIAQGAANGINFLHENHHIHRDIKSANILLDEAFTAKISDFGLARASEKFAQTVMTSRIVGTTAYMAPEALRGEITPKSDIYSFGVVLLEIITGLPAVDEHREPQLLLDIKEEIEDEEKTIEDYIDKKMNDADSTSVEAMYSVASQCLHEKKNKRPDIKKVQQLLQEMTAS
Summary of the method: as §1

LOK = target: T6, LOK (Homo sapiens, UniProt O94804); details: read-out: percentage of control activity (POC), LOK
T6 construct: purchased Eurofins Pharma Discovery Services (KinaseProfiler; Cerep BioPrint panel)
Summary of the method: as §1

Lyn = target: T7, Lyn (Homo sapiens, UniProt P07948); details: read-out: percentage of control activity (POC), Lyn
T7 construct: purchased Eurofins Pharma Discovery Services (KinaseProfiler; Cerep BioPrint panel)
Summary of the method: as §1

PDGFRβ = target: T8, PDGFRβ (Homo sapiens, UniProt P09619); details: read-out: percentage of control activity (POC), PDGFRβ
T8 construct: purchased Eurofins Pharma Discovery Services (KinaseProfiler; Cerep BioPrint panel)
Summary of the method: as §1

PI3K (p110a/p85a) = target: T9, PI3K (p110a/p85a) (Homo sapiens, UniProt P42336); details: read-out: percentage of control activity (POC), PI3K (p110a/p85a)
T9 construct: purchased Eurofins Pharma Discovery Services (KinaseProfiler; Cerep BioPrint panel)
Summary of the method: as §1

PKCα = target: T10, PKCα (Homo sapiens, UniProt P17252); details: read-out: percentage of control activity (POC), PKCα
T10 construct: purchased Eurofins Pharma Discovery Services (KinaseProfiler; Cerep BioPrint panel)
Summary of the method: as §1

PKCδ = target: T11, PKCδ (Homo sapiens, UniProt Q05655); details: read-out: percentage of control activity (POC), PKCδ
T11 construct: purchased Eurofins Pharma Discovery Services (KinaseProfiler; Cerep BioPrint panel)
Summary of the method: as §1

Pyk2 = target: T12, Pyk2 (Homo sapiens, UniProt Q14289); details: read-out: percentage of control activity (POC), Pyk2
T12 construct: purchased Eurofins Pharma Discovery Services (KinaseProfiler; Cerep BioPrint panel)
Summary of the method: as §1

SAPK2b = target: T13, SAPK2b (Homo sapiens, UniProt Q15759); details: for inhibition at 10 µM: read-out: inhibition of p38 β(SAPK2β); for remaining activity at 10 µM: read-out: percentage of control activity (POC), SAPK2b
T13 construct: purchased Eurofins Pharma Discovery Services (KinaseProfiler; Cerep BioPrint panel)
Summary of the method: as §1

SAPK3 = target: T14, SAPK3 (Homo sapiens, UniProt P53778); details: read-out: percentage of control activity (POC), SAPK3
T14 construct: purchased Eurofins Pharma Discovery Services (KinaseProfiler; Cerep BioPrint panel)
T14 sequence (P53778 1-367): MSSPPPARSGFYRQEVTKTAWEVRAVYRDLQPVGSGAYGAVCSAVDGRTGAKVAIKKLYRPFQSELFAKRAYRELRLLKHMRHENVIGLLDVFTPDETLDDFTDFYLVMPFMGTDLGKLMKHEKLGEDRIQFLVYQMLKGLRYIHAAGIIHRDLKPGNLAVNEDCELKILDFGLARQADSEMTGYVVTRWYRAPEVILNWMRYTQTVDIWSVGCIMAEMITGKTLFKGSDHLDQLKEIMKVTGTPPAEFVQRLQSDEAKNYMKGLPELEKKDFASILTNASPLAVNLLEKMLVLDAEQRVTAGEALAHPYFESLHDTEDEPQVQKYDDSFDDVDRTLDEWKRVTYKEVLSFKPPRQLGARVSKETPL
Summary of the method: as §1

SAPK4 = target: T15, SAPK4 (Homo sapiens, UniProt O15264); details: read-out: percentage of control activity (POC), SAPK4
T15 construct: purchased Eurofins Pharma Discovery Services (KinaseProfiler; Cerep BioPrint panel)
T15 sequence (O15264 1-365): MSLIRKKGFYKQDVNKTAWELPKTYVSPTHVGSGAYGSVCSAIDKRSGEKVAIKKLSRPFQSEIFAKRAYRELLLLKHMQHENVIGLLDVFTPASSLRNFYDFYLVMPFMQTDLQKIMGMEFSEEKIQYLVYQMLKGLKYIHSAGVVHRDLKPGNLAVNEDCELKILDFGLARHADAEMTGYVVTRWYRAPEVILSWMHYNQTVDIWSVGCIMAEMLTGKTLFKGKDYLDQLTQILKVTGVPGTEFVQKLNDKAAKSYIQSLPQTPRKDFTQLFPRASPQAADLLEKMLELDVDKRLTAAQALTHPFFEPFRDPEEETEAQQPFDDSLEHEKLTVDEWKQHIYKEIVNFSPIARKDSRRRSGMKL
Summary of the method: as §1

TAK1 = target: T16, TAK1 (Homo sapiens, UniProt O43318); details: read-out: percentage of control activity (POC), TAK1
T16 construct: purchased Eurofins Pharma Discovery Services (KinaseProfiler; Cerep BioPrint panel)
T16 sequence (O43318 1-303 limits assumed): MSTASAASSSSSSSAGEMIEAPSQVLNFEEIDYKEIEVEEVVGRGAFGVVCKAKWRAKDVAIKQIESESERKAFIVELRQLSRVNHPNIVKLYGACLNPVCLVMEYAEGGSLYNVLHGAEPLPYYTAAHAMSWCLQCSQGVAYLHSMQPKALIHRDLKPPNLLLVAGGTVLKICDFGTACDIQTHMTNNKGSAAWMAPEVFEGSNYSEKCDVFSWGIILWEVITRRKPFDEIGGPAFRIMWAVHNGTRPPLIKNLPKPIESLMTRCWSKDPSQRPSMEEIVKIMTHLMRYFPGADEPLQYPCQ
Summary of the method: as §1

T11 sequence (Q05655 whole entry): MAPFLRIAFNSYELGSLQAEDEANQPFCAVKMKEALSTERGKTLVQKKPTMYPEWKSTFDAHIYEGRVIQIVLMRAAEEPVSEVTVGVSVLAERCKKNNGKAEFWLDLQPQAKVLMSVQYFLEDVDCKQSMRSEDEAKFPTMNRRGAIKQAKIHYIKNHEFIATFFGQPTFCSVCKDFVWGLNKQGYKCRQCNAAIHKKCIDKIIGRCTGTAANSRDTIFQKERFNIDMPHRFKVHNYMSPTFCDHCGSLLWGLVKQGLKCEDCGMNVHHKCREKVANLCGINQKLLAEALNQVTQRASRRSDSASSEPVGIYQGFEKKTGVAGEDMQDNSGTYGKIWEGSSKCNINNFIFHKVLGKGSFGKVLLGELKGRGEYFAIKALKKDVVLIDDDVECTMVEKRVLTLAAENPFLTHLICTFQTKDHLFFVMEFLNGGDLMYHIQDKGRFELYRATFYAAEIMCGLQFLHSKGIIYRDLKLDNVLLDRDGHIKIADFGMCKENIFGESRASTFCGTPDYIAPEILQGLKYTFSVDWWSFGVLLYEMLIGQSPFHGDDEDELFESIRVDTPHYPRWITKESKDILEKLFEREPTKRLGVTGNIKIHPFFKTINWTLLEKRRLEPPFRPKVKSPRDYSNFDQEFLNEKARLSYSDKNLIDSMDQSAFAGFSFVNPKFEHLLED
T6 sequence (O94804 whole entry): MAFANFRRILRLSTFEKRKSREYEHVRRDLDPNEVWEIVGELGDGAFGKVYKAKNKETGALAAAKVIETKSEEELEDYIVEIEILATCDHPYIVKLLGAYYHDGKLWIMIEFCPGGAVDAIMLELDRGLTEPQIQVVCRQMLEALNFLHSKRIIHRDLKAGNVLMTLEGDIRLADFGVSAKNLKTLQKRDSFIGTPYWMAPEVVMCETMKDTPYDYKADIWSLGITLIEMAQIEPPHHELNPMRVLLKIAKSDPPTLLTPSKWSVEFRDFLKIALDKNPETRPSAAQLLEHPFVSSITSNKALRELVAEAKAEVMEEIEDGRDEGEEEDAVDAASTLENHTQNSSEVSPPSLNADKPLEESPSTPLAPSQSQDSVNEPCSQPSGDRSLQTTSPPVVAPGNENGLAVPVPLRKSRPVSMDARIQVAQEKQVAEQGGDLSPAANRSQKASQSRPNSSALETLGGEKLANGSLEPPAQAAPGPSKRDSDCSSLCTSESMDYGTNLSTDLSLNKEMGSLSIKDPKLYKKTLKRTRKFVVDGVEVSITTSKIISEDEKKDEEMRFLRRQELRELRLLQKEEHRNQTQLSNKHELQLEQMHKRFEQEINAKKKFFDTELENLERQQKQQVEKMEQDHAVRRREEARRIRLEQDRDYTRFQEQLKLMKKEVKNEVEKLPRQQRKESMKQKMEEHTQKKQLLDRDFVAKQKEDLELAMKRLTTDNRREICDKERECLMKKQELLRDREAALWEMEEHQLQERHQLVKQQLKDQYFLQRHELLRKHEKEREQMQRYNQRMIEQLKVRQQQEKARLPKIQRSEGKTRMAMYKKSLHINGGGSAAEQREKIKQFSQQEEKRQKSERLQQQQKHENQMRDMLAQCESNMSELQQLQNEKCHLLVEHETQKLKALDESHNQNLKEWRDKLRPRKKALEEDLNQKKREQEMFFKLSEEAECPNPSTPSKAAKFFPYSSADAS
T1 sequence (P00519 whole entry): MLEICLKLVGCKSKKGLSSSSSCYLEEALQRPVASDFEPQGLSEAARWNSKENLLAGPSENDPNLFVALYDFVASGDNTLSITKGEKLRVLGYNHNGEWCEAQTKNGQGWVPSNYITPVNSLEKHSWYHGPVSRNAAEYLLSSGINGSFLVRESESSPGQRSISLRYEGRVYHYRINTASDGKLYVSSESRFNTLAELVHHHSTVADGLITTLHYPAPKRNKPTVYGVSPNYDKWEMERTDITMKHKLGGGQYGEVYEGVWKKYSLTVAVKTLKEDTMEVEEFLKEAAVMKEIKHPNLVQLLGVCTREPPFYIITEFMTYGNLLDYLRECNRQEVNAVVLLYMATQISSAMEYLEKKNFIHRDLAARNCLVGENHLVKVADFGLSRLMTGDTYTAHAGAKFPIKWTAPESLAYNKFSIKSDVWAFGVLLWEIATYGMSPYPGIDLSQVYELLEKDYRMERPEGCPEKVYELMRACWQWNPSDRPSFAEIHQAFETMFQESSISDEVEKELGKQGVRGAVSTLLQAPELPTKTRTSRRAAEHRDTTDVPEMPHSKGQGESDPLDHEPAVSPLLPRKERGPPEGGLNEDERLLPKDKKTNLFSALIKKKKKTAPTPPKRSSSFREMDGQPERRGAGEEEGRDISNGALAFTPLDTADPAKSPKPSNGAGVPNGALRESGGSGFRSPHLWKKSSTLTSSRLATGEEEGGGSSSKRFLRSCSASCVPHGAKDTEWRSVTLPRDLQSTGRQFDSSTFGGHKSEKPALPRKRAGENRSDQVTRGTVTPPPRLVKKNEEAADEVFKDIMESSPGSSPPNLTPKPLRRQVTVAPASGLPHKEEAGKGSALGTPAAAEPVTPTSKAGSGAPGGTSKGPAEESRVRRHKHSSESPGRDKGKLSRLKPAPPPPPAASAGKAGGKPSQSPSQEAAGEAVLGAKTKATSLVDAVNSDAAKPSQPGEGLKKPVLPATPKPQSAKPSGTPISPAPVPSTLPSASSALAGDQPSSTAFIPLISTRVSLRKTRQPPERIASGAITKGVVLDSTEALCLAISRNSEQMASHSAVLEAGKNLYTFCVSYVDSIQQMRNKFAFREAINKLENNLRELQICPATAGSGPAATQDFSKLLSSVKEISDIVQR
T7 sequence (P07948 whole entry): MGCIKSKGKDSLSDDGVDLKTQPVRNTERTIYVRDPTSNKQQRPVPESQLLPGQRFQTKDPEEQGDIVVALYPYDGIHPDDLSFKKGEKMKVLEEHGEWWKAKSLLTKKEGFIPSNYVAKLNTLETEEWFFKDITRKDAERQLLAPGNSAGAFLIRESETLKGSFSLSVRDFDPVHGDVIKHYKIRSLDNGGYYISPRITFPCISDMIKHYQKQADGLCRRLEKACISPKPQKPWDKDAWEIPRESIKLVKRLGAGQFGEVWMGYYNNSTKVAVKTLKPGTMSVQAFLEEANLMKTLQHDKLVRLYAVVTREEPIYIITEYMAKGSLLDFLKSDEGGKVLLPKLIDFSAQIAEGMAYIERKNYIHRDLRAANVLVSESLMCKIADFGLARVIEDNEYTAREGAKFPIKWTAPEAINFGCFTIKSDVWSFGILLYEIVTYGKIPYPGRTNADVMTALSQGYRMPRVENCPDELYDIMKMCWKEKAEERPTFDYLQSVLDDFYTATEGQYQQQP
T12 sequence (Q14289 whole entry): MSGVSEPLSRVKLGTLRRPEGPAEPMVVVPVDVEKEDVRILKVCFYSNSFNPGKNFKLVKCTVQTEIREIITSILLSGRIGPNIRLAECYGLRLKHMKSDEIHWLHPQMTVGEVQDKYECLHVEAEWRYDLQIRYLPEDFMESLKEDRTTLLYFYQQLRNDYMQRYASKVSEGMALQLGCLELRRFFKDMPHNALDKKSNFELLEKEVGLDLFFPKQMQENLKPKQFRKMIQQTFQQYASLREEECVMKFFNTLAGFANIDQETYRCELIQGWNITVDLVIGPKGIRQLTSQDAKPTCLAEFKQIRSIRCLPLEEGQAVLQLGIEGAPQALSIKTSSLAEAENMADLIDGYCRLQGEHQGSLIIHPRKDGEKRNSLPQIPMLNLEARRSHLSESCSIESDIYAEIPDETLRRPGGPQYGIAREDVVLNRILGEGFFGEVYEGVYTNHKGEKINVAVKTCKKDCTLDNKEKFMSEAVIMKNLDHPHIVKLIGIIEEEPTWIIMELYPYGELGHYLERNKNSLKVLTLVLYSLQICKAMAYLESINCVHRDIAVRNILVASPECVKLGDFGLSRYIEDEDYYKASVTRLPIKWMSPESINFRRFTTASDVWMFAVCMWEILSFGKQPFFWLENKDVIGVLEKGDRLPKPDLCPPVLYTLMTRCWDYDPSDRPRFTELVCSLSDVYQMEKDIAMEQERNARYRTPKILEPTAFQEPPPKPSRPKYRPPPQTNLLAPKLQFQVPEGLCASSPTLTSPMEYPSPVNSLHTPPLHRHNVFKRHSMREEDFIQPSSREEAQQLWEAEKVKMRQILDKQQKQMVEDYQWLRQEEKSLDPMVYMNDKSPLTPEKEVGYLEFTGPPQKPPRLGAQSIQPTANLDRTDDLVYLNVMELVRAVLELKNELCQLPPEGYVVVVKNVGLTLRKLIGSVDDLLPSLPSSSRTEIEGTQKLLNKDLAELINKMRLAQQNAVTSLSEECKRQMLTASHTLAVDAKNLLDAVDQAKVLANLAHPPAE

Structure (SMILES): Cn1cc(-c2cccc(-c3nc(C(=O)NC4C5CC6CC4CC(O)(C6)C5)c(N)nc3N)c2)cn1 (stereo not shown) [compound 4]
remaining activity at 10 µM (Abl): 66% | remaining activity at 10 µM (BTK): 89% | remaining activity at 10 µM (EphA2): 97% | inhibition at 10 µM (Flt4; 10 μM, read-out: inhibition of Ftl4): 80% | remaining activity at 10 µM (Flt4; 10 μM): 20% | IC50 (Flt4; biochemical dose response, duplicate, read-out: Inhibition of indicated activity (IC50, μM): Ftl4): 3.13 µM | remaining activity at 10 µM (IRAK4): 82% | remaining activity at 10 µM (LOK): 109% | remaining activity at 10 µM (Lyn): 66% | remaining activity at 10 µM (PDGFRβ): 63% | remaining activity at 10 µM (PI3K (p110a/p85a)): 60% | remaining activity at 10 µM (PKCα): 85% | remaining activity at 10 µM (PKCδ): 97% | remaining activity at 10 µM (Pyk2): 86% | remaining activity at 10 µM (SAPK2b): 99% | remaining activity at 10 µM (SAPK3): 92% | remaining activity at 10 µM (SAPK4): 88% | remaining activity at 10 µM (TAK1): 97%

Structure (SMILES): CS(=O)(=O)N1CCN(c2ccc(Nc3ncc(C(N)=O)c(NC4CC4)n3)cc2)CC1 [compound 5]
remaining activity at 10 µM (Abl): 2% | remaining activity at 10 µM (BTK): 17% | remaining activity at 10 µM (EphA2): 57% | remaining activity at 10 µM (Flt4; 10 μM): 0% | remaining activity at 10 µM (IRAK4): 13% | remaining activity at 10 µM (LOK): 14% | remaining activity at 10 µM (Lyn): 5% | remaining activity at 10 µM (PDGFRβ): 16% | remaining activity at 10 µM (PI3K (p110a/p85a)): 96% | remaining activity at 10 µM (PKCα): 38% | remaining activity at 10 µM (PKCδ): 8% | remaining activity at 10 µM (Pyk2): 4% | remaining activity at 10 µM (SAPK2b): 82% | remaining activity at 10 µM (SAPK3): 64% | remaining activity at 10 µM (SAPK4): 32% | remaining activity at 10 µM (TAK1): 1%

More lines, now with the values ahead:

remaining activity at 10 µM (Abl): 104% | remaining activity at 10 µM (BTK): 114% | remaining activity at 10 µM (EphA2): 103% | remaining activity at 10 µM (Flt4; 10 μM): 108% | remaining activity at 10 µM (IRAK4): 95% | remaining activity at 10 µM (LOK): 107% | remaining activity at 10 µM (Lyn): 104% | remaining activity at 10 µM (PDGFRβ): 70% | remaining activity at 10 µM (PI3K (p110a/p85a)): 97% | remaining activity at 10 µM (PKCα): 106% | remaining activity at 10 µM (PKCδ): 109% | remaining activity at 10 µM (Pyk2): 99% | inhibition at 10 µM (SAPK2b): ~100% | remaining activity at 10 µM (SAPK2b): -5% | remaining activity at 10 µM (SAPK3): 75% | remaining activity at 10 µM (SAPK4): 96% | remaining activity at 10 µM (TAK1): 105%
Structure (SMILES): CC(C)(C)N1CCC(c2cc(-c3ccc(F)cc3Cl)c3cc[n+]([O-])c(-c4c(Cl)cccc4Cl)c3n2)CC1 [compound 2]

remaining activity at 10 µM (Abl): 96% | remaining activity at 10 µM (BTK): 98% | remaining activity at 10 µM (EphA2): 100% | remaining activity at 10 µM (Flt4; 10 μM): 78% | remaining activity at 10 µM (IRAK4): 92% | remaining activity at 10 µM (LOK): 112% | remaining activity at 10 µM (Lyn): 101% | remaining activity at 10 µM (PDGFRβ): 61% | remaining activity at 10 µM (PI3K (p110a/p85a)): 94% | remaining activity at 10 µM (PKCα): 95% | remaining activity at 10 µM (PKCδ): 104% | remaining activity at 10 µM (Pyk2): 99% | inhibition at 10 µM (SAPK2b): ~100% | remaining activity at 10 µM (SAPK2b): -6% | remaining activity at 10 µM (SAPK3): 78% | remaining activity at 10 µM (SAPK4): 94% | remaining activity at 10 µM (TAK1): 97%
Structure (SMILES): Cc1ccc(C(=O)NCC2CC2)cc1-c1ccc2c(c1)NC(=O)C21CCCC1 [compound 3]

remaining activity at 10 µM (Abl): 50% | remaining activity at 10 µM (BTK): 112% | remaining activity at 10 µM (EphA2): 63% | remaining activity at 10 µM (Flt4; 10 μM): 88% | remaining activity at 10 µM (IRAK4): 118% | remaining activity at 10 µM (LOK): 135% | remaining activity at 10 µM (Lyn): 66% | remaining activity at 10 µM (PDGFRβ): 82% | remaining activity at 10 µM (PI3K (p110a/p85a)): 95% | remaining activity at 10 µM (PKCα): 102% | remaining activity at 10 µM (PKCδ): 107% | remaining activity at 10 µM (Pyk2): 87% | inhibition at 10 µM (SAPK2b): ~100% | remaining activity at 10 µM (SAPK2b): -4% | remaining activity at 10 µM (SAPK3): 67% | remaining activity at 10 µM (SAPK4): 81% | remaining activity at 10 µM (TAK1): 103%
Structure (SMILES): COc1c(NC(=O)c2ccc(C)c(-c3nnc4c(NCC(C)(C)C)nccn34)c2)cc(C(C)(C)C)cc1NS(C)(=O)=O [compound 7, reference compound]
